The target in experiment [1] is T1, γ-secretase (Homo sapiens, UniProt P49768).
T1 construct: endogenous in cells; host or cells: SKNBE2 human neuroblastoma cells (carrying hAPP 695 wild type as substrate)
The experiment can be described thus: Screening for γ-secretase-modulating activity: Aβ42 in supernatant of SKNBE2 cells carrying hAPP 695 wild type (Alphalisa). The class given is cell-based. The conditions noted are these: SKNBE2 human neuroblastoma cells carrying hAPP 695 wild type, overnight incubation, Aβ42 in cell supernatant. As to the method:
(§1) Screening was carried out using SKNBE2 human neuroblastoma cells carrying the hAPP 695—wild type, grown in Dulbecco's Modified Eagle's Medium/Nutrient mixture F-12 (DMEM/NUT-mix F-12) (HAM) provided by Invitrogen (cat no. 10371-029) containing 5% Serum/Fe supplemented with 1% non-essential amino acids, 1-glutamine 2 mM, Hepes 15 mM, penicillin 50 U/ml (units/ml) en streptomycin 50 μg/ml. Cells were grown to near confluency.
(§2) The screening was performed using a modification of the assay as described in Citron et al (1997) Nature Medicine 3: 67. Briefly, cells were plated in a 384-well plate at 10^4 cells/well in Ultraculture (Lonza, BE12-725F) supplemented with 1% glutamine (Invitrogen, 25030-024), 1% non-essential amino acid (NEAA), penicillin 50 U/ml en streptomycin 50 μg/ml in the presence of test compound at different test concentrations. The cell/compound mixture was incubated overnight at 37° C., 5% CO2. The next day the media were assayed by two sandwich immuno-assays, for Aβ42 and Aβ total.
(§3) Aβtotal and Aβ42 concentrations were quantified in the cell supernatant using the Aphalisa technology (Perkin Elmer). Alphalisa is a sandwich assay using biotinylated antibody attached to streptavidin coated donorbeads and antibody conjugated to acceptor beads. In the presence of antigen, the beads come into close proximity. The excitation of the donor beads provokes the release of singlet oxygen molecules that trigger a cascade of energy transfer in the acceptor beads, resulting in light emission. To quantify the amount of Aβ42 in the cell supernatant, monoclonal antibody specific to the C-terminus of Aβ42 (JRF/cAβ42/26) was coupled to the receptor beads and biotinylated antibody specific to the N-terminus of Aβ (JRF/AβN/25) was used to react with the donor beads. To quantify the amount of Aβtotal in the cell supernatant, monoclonal antibody specific to the N-terminus of Aβ (JRF/AβN/25) was coupled to the receptor beads and biotinylated antibody specific to the mid region of Aβ (biotinylated 4G8) was used to react with the donor beads.
(§4) To obtain the values reported in Table 3, the data are calculated as percentage of the maximum amount of amyloid Beta 42 measured in the absence of the test compound. The sigmoidal dose response curves were analyzed using non-linear regression analysis with percentage of the control plotted against the log concentration of the compound. A 4-parameter equation was used to determine the IC50.
On the technique in general: In Alpha technology, singlet oxygen from a donor bead excites a nearby acceptor bead.

Experiment [2] has as its target T1, γ-secretase. The experiment can be described thus: Screening for γ-secretase-modulating activity: Aβtotal in supernatant of SKNBE2 cells carrying hAPP 695 wild type (Alphalisa). Format: cell-based. Particulars: SKNBE2 human neuroblastoma cells carrying hAPP 695 wild type, overnight incubation, Aβtotal in cell supernatant. The method, then: as §1, §2, §3, §4

The structures appear in SMILES notation. Where only a bound is given, the exact number is not on record here.

`Cc1cn(-c2ccc3n(c2=O)CC(C)N(C2CCc4ccc(C(F)(F)F)cc42)C3=O)cn1` (centres unmarked) [compound 205]: the IC50 (usually the concentration that inhibits the measured activity by half) is 0.24 µM against γ-secretase [1] and greater than 10 µM on γ-secretase [2].
On the same counts, the results for `COc1cc(C(C)N2C(=O)c3ccc(-n4cnc(C)c4)c(=O)n3C[C@H]2C)cc(C(F)(F)F)c1` (single isomer, unassigned) [compound 149] are 0.3 µM and greater than 10 µM.
Take `CCc1cn(-c2ccc3n(c2=O)CC(CN(C)C)N(Cc2cc(C(F)(F)F)cc(C(F)(F)F)c2)C3=O)cn1` (centres unmarked) [compound 8]: the IC50 was 0.93 µM on γ-secretase [1] and greater than 10 µM against γ-secretase [2].
`Cc1cn(-c2ccc3n(c2=O)CC(C)N(C(C)c2c[nH]c4cc(F)c(Cl)cc24)C3=O)cn1` (single isomer, unassigned) [compound 188]: the IC50 at γ-secretase [1] stood at 0.01 µM; on γ-secretase [2], 4.57 µM.
On to `Cc1cn(-c2ccc3n(c2=O)CC(C)N(Cc2c[nH]c4cc(Br)ccc24)C3=O)cn1` (centres unmarked) [compound 125], for which the IC50 on γ-secretase [1] is 0.05 µM; on γ-secretase [2], greater than 10 µM.
As to `Cc1cn(-c2ccc3n(c2=O)CC(C)N(C(C)c2cn(C)c4ccc(C(F)(F)F)cc24)C3=O)cn1` (single isomer, unassigned) [compound 214], the IC50 was 0.24 µM on γ-secretase [1] and 6.46 µM on γ-secretase [2].
Turning to `Cc1cn(-c2ccc3n(c2=O)C[C@@H](C2CC2)N(Cc2ccc(Cl)c(Cl)c2)C3=O)cn1` [compound 33], the IC50 is 1.66 µM on γ-secretase [1] and greater than 10 µM at γ-secretase [2].
In the case of `Cc1cn(-c2ccc3n(c2=O)C[C@@H](C)N(Cc2ccc(C(F)(F)F)c(N4CCCCC4)c2)C3=O)cn1` [compound 171], the IC50 against γ-secretase [1] was 0.04 µM; against γ-secretase [2] it was greater than 10 µM.
Regarding `COc1cc(C(C)N2C(=O)c3ccc(-n4cnc(C)c4)c(=O)n3C[C@H]2C)cc(C(F)(F)F)c1` (single isomer, unassigned) [compound 148], the IC50 was 0.14 µM on γ-secretase [1] and greater than 10 µM at γ-secretase [2].
For `Cc1cn(-c2ccc3n(c2=O)CC(C)N(C2CCc4ccc(C(F)(F)F)cc42)C3=O)cn1` (centres unmarked) [compound 204], the figures for the IC50 on γ-secretase [1] and at γ-secretase [2] were 0.12 µM and greater than 10 µM, respectively.
Turning to `Cc1cn(-c2ccc3n(c2=O)C[C@@H](C)N(Cc2cc(Br)cc(OC(F)(F)F)c2)C3=O)cn1` [compound 152], the figures for the IC50 against γ-secretase [1] and against γ-secretase [2] were 0.07 µM and greater than 10 µM, respectively.
In the case of `Cc1cn(-c2ccc3n(c2=O)C[C@@H](C)N(Cc2cn(C)c4ccc(Cl)cc24)C3=O)cn1` [compound 137], the IC50 at γ-secretase [1] is 0.03 µM; on γ-secretase [2], greater than 10 µM.
On to `Cc1cn(-c2ccc3n(c2=O)C[C@@H](C)N(Cc2cn(C)c4ccc(OC(F)(F)F)cc24)C3=O)cn1` [compound 253], for which the values for the IC50 against γ-secretase [1] and against γ-secretase [2] were 0.009 µM and 5 µM, respectively.
On the same counts, the results for `Cc1cn(-c2ccc3n(c2=O)CC(C)N(Cc2c[nH]c4cc(Cl)ccc24)C3=O)cn1` (centres unmarked) [compound 179] are 0.07 µM and greater than 10 µM.
As to `COC[C@@H]1Cn2c(ccc(-n3cnc(C)c3)c2=O)C(=O)N1Cc1cc(C(F)(F)F)cc(C(F)(F)F)c1` [compound 47], the IC50 against γ-secretase [1] is 0.26 µM; against γ-secretase [2], greater than 10 µM.
On the same counts, the results for `Cc1cn(-c2ccc3n(c2=O)C[C@@H](C)N(Cc2ccc(C)c(-n4cccn4)c2)C3=O)cn1` [compound 114] are 1.91 µM and greater than 10 µM.
As to `Cc1cn(-c2ccc3n(c2=O)CCN(Cc2cccc(C(F)(F)F)c2Cl)C3=O)cn1` [compound 64], the IC50 at γ-secretase [1] was 0.69 µM; on γ-secretase [2] it was greater than 10 µM.
For `COCC(c1cc(C(F)(F)F)cc(C(F)(F)F)c1)N1CCn2c(ccc(-n3cnc(C)c3)c2=O)C1=O` (centres unmarked) [compound 54], in that order: 1.26 µM and greater than 10 µM.
Take `CCn1cc(C(C)N2C(=O)c3ccc(-n4cnc(C)c4)c(=O)n3CC2C)c2cc(Cl)cc(F)c21` (single isomer, unassigned) [compound 220]: the IC50 on γ-secretase [1] was determined as 0.17 µM; against γ-secretase [2] it was 6.03 µM.
Regarding `Cc1cn(-c2ccc3n(c2=O)C(C)C(C)N(Cc2cc(C(F)(F)F)cc(C(F)(F)F)c2)C3=O)cn1` (single isomer, unassigned) [14b], the IC50 at γ-secretase [1] was 0.65 µM; against γ-secretase [2], greater than 10 µM.
Consider `Cc1cn(-c2ccc3n(c2=O)C[C@@H](C)N(Cc2cc(N4CCCCC4)cc(C(F)(F)F)c2)C3=O)cn1` [compound 86], for which the IC50 against γ-secretase [1] was 0.03 µM; against γ-secretase [2], greater than 10 µM.
As to `Cc1cn(-c2ccc3n(c2=O)CC(C)N(Cc2cn(-c4ccccc4)c4cc(Br)ccc24)C3=O)cn1` (centres unmarked) [compound 199], the IC50 against γ-secretase [1] turned out to be 0.02 µM; against γ-secretase [2] it was 9.78 µM.
Take `Cc1cn(-c2ccc3n(c2=O)C[C@@H](C)N(Cc2c[nH]c4c(C(F)(F)F)cc(F)cc24)C3=O)cn1` [compound 257]: the IC50 at γ-secretase [1] was 0.04 µM; against γ-secretase [2], greater than 10 µM.
On to `Cc1cn(-c2ccc3n(c2=O)C[C@@H](C)N(C(C)c2cc(CC4CC4)cc(C(F)(F)F)c2)C3=O)cn1` (single isomer, unassigned) [compound 136], for which the IC50 at γ-secretase [1] is 0.04 µM; against γ-secretase [2], greater than 10 µM.
Take `Cc1cn(-c2ccc3n(c2=O)C[C@@H](C)N(Cc2ccc(Cl)c(N4CCCCC4)c2)C3=O)cn1` [compound 85]: the IC50 against γ-secretase [1] was 0.06 µM; at γ-secretase [2] it was greater than 10 µM.
For `Cc1cn(-c2c(C)cc3n(c2=O)C[C@@H](C)N(Cc2cc(C(F)(F)F)cc(C(F)(F)F)c2)C3=O)cn1` [compound 161], the IC50 was 0.79 µM against γ-secretase [1] and greater than 10 µM against γ-secretase [2].
In the case of `Cc1cn(-c2ccc3n(c2=O)CCN(C(C)c2c[nH]c4cc(F)c(Cl)cc24)C3=O)cn1` (single isomer, unassigned) [compound 184], the IC50 against γ-secretase [1] came to 0.65 µM; against γ-secretase [2], 9.12 µM.
For the compound `Cc1ccc2cc(CN3CCn4c(ccc(-n5cnc(C)c5)c4=O)C3=O)ccc2c1` [compound 94], the IC50 was 0.49 µM against γ-secretase [1] and greater than 10 µM against γ-secretase [2].
Consider `Cc1cn(-c2ccc3n(c2=O)C[C@@H](C)N(Cc2cc(C(F)(F)F)ccc2C)C3=O)cn1` [compound 72], for which the IC50 against γ-secretase [1] is 0.19 µM; on γ-secretase [2] it was greater than 10 µM.
On the same counts, the results for `Cc1cn(-c2ccc3n(c2=O)C[C@@H](C)N(Cc2cn(C)c4cc(F)c(C(F)(F)F)cc24)C3=O)cn1` [compound 238] are 0.009 µM and 4 µM.
As to `Cc1cn(-c2ccc3n(c2=O)C[C@@H](C)N(Cc2c[nH]c4c(I)cccc24)C3=O)cn1` [compound 197], the IC50 against γ-secretase [1] was 0.06 µM; against γ-secretase [2], greater than 10 µM.
`Cc1cn(-c2ccc3n(c2=O)CCN(CCc2c[nH]c4ccccc24)C3=O)cn1` [compound 104]: the IC50 against γ-secretase [1] and against γ-secretase [2] was greater than 10 µM in each case.
On to `Cc1cn(-c2ccc3n(c2=O)C[C@@H](C)N(C(C)c2cccc(OC(F)(F)F)c2)C3=O)cn1` (single isomer, unassigned) [compound 146], for which the IC50 on γ-secretase [1] is 0.15 µM; against γ-secretase [2], greater than 10 µM.
For `CCn1cc(C(C)N2C(=O)c3ccc(-n4cnc(C)c4)c(=O)n3CC2C)c2cc(Cl)ccc21` (single isomer, unassigned) [compound 249], the IC50 against γ-secretase [1] was 0.49 µM; against γ-secretase [2], 8 µM.
On the same counts, the results for `CCn1cc(C(C)N2C(=O)c3ccc(-n4cnc(C)c4)c(=O)n3CC2C)c2cc(Cl)c(F)cc21` (single isomer, unassigned) [compound 191] are 0.2 µM and greater than 10 µM.
Consider `CCn1cc(C(C)N2C(=O)c3ccc(-n4cnc(C)c4)c(=O)n3C[C@H]2C)c2ccc(C(F)(F)F)cc21` (single isomer, unassigned) [compound 244], for which the IC50 is 0.37 µM against γ-secretase [1] and greater than 10 µM against γ-secretase [2].
In the case of `Cc1cn(-c2ccc3n(c2=O)C[C@@H](C)N(Cc2c(C)[nH]c4ccc(C(F)(F)F)cc24)C3=O)cn1` [compound 180], the IC50 at γ-secretase [1] stood at 0.01 µM; on γ-secretase [2], 6.61 µM.
Take `COc1cc(C)c(CN2C(=O)c3ccc(-n4cnc(C)c4)c(=O)n3C[C@H]2C)cc1C(C)C` [compound 77]: the IC50 is 0.19 µM against γ-secretase [1] and greater than 10 µM against γ-secretase [2].
As to `CCn1cc(C(C)N2C(=O)c3ccc(-n4cnc(C)c4)c(=O)n3CC2C)c2cc(C(F)(F)F)ccc21` (single isomer, unassigned) [compound 217], the results for the IC50 at γ-secretase [1] and against γ-secretase [2] were 0.003 µM and 0.48 µM, respectively.
On the same counts, the results for `Cc1cn(-c2ccc3n(c2=O)C[C@@H](CN(C)C)N(Cc2cc(C(F)(F)F)cc(C(F)(F)F)c2)C3=O)cn1` [compound 48] are 0.58 µM and greater than 10 µM.
